These results are taken from PubChem BioAssay (NCI).

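Exposure lasted 48 hours, with cells grown in 96-well plates and compounds tested at five concentrations. GI50: concentration for 50% inhibition of growth. TGI is the concentration that stops growth completely.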

Some test systems named below: 786-0 renal; OVCAR-4 ovarian; OVCAR-8 ovarian; SNB-75 CNS; RXF 393 renal; OVCAR-5 ovarian; CCRF-CEM leukemia; MALME-3M melanoma; SK-MEL-28 melanoma; MOLT-4 leukemia.
Test in all cases: inhibition of tumour cell growth, NCI panel, 48 h

With `O=[N+]([O-])c1ccc2nc(N/N=C/c3ccc(O)cc3)sc2c1`, the GI50 was 6.43 µM with 786-0 renal; 3.92 µM in the experiment on OVCAR-4 ovarian; 3.75 µM with OVCAR-8 ovarian; 5.16 µM in the experiment on SNB-75 CNS; 10.9 µM with RXF 393 renal; 18.9 µM in the experiment with OVCAR-5 ovarian. Besides, the GI50 is 3.28 µM with CCRF-CEM leukemia, 19.7 µM in the experiment on MALME-3M melanoma, 9.43 µM in the experiment on SK-MEL-28 melanoma and 2.96 µM with MOLT-4 leukemia. Further, the TGI was 60.5 µM in the experiment on 786-0 renal; 51.8 µM in the experiment on OVCAR-4 ovarian; 32.2 µM in the experiment with OVCAR-8 ovarian; 56.1 µM in the experiment on SNB-75 CNS; 66.9 µM with RXF 393 renal; more than 100 µM in the experiment with OVCAR-5 ovarian. Further, the TGI with CCRF-CEM leukemia is more than 100 µM; in the experiment on MALME-3M melanoma, more than 100 µM; in the experiment with SK-MEL-28 melanoma, 57.2 µM; with MOLT-4 leukemia, more than 100 µM.

For the compound `N#Cc1cccc(Nc2nccc(-c3cnn4ncccc34)n2)c1`, the GI50 in the experiment with 786-0 renal is 0.00608 µM; in the experiment on OVCAR-4 ovarian it was 0.0322 µM; in the experiment with OVCAR-8 ovarian it was 0.0065 µM; in the experiment with SNB-75 CNS it was 0.00494 µM; in the experiment with RXF 393 renal it was 0.00269 µM; with OVCAR-5 ovarian, 0.00823 µM. For the same compound, the figures for the GI50 with CCRF-CEM leukemia, with MALME-3M melanoma and in the experiment on SK-MEL-28 melanoma were 0.006 µM, 0.0076 µM and 0.00408 µM, respectively. Further, the TGI was more than 25 µM in the experiment with 786-0 renal; more than 25 µM in the experiment on OVCAR-8 ovarian; 0.012 µM in the experiment with SNB-75 CNS; 0.00791 µM in the experiment on RXF 393 renal; more than 25 µM with OVCAR-5 ovarian; more than 25 µM with CCRF-CEM leukemia. For the same compound, the TGI in the experiment with MALME-3M melanoma is 0.0209 µM; in the experiment on SK-MEL-28 melanoma it was 0.0125 µM.

With `COc1cc(C2C(C(=O)O)=C(C)Oc3cc4c(cc32)OCO4)cc(OC)c1OC` (stereo not given), the TGI with 786-0 renal was more than 100 µM; in the experiment on OVCAR-4 ovarian, more than 100 µM; with OVCAR-8 ovarian, more than 100 µM; with SNB-75 CNS, 53.1 µM; with RXF 393 renal, more than 100 µM; in the experiment with CCRF-CEM leukemia, more than 100 µM. Moreover, the TGI in the experiment on MALME-3M melanoma, with SK-MEL-28 melanoma and with MOLT-4 leukemia was more than 100 µM each time.

As for `Fc1cccc(F)c1C1SCc2nc3ccccc3n21` (stereo not given), the TGI in the experiment with 786-0 renal, in the experiment on OVCAR-4 ovarian, in the experiment with OVCAR-8 ovarian, with SNB-75 CNS, with RXF 393 renal and in the experiment with OVCAR-5 ovarian was more than 100 µM throughout. Besides, the TGI with CCRF-CEM leukemia, with MALME-3M melanoma and in the experiment with MOLT-4 leukemia was more than 100 µM each time.

Take `CC1CC2C3CC(F)C4=CC(=O)C=CC4(C)C3(F)C(O)CC2(C)C1(O)C(=O)CO` (stereo not given): the TGI in the experiment on 786-0 renal, in the experiment with OVCAR-4 ovarian, with SNB-75 CNS, in the experiment on RXF 393 renal, in the experiment with CCRF-CEM leukemia and in the experiment with MALME-3M melanoma was more than 100 µM throughout. Further, the TGI in the experiment on SK-MEL-28 melanoma and in the experiment with MOLT-4 leukemia was more than 100 µM each time.

In the case of `COc1cc2c(cc1OC)-c1c(cc(OC)c(OC)c1OC)C2=O`, the TGI in the experiment on 786-0 renal is more than 100 µM; with OVCAR-8 ovarian, more than 100 µM; in the experiment on SNB-75 CNS, 95.5 µM; in the experiment with RXF 393 renal it was more than 100 µM; with OVCAR-5 ovarian, more than 100 µM; in the experiment with CCRF-CEM leukemia, more than 100 µM. Moreover, the TGI in the experiment with MALME-3M melanoma, with SK-MEL-28 melanoma and in the experiment with MOLT-4 leukemia was more than 100 µM each time.

In the case of `Clc1ccc2c(NCCCN3CCN(c4nc(-n5ccnc5)nc5ccccc45)CC3)ccnc2c1`, the GI50 was 1.66 µM in the experiment on 786-0 renal; more than 100 µM in the experiment on OVCAR-4 ovarian; 1.58 µM with SNB-75 CNS; 1.67 µM in the experiment on RXF 393 renal; more than 100 µM in the experiment with OVCAR-5 ovarian; 2.87 µM in the experiment with CCRF-CEM leukemia. Also, the GI50 was 1.91 µM in the experiment on MALME-3M melanoma, 1.8 µM with SK-MEL-28 melanoma and 2.38 µM with MOLT-4 leukemia. For the same compound, the TGI in the experiment on 786-0 renal is 3.21 µM; with OVCAR-4 ovarian, more than 100 µM; in the experiment with SNB-75 CNS it was 3.25 µM; with RXF 393 renal it was 3.34 µM; in the experiment on OVCAR-5 ovarian it was more than 100 µM; in the experiment with CCRF-CEM leukemia, more than 100 µM. In addition, the TGI is 3.56 µM with MALME-3M melanoma, 3.34 µM with SK-MEL-28 melanoma and 6.85 µM in the experiment on MOLT-4 leukemia.

For the compound `c1ccc(-c2cc(-c3cc(-c4ccccn4)[nH]n3)n[nH]2)nc1`, the TGI in the experiment with 786-0 renal, with OVCAR-4 ovarian, in the experiment on OVCAR-8 ovarian, in the experiment on SNB-75 CNS, in the experiment with RXF 393 renal and in the experiment on OVCAR-5 ovarian was more than 100 µM each time. Further, the TGI with MALME-3M melanoma, in the experiment with SK-MEL-28 melanoma and in the experiment with MOLT-4 leukemia was more than 100 µM throughout.

Regarding `O=C(O)/C(O)=C1/C=C(c2ccccc2)c2ccccc21`, the TGI with 786-0 renal was determined as 78 µM; in the experiment on OVCAR-4 ovarian, 80.7 µM; in the experiment on OVCAR-8 ovarian, 59.4 µM; in the experiment on SNB-75 CNS, 61.7 µM; in the experiment with RXF 393 renal, 35.6 µM; with OVCAR-5 ovarian, 72.2 µM. Also, the figures for the TGI with CCRF-CEM leukemia, in the experiment on MALME-3M melanoma and in the experiment with MOLT-4 leukemia were 46.6 µM, 71.3 µM and 43.8 µM, respectively.

Turning to `CC(NC1CCC[C@H]1O)c1ccccc1` (mixture of isomers), the TGI in the experiment on 786-0 renal, in the experiment on OVCAR-4 ovarian, with OVCAR-8 ovarian, with SNB-75 CNS, in the experiment with RXF 393 renal and in the experiment with CCRF-CEM leukemia was more than 100 µM each time. Further, the TGI in the experiment on MALME-3M melanoma, with SK-MEL-28 melanoma and in the experiment with MOLT-4 leukemia was more than 100 µM each time.

Consider `O=C1c2cccc3c(N4CCN(c5ccc6c7c(cccc57)C(=O)N(CCN5CCNCC5)C6=O)CC4)ccc(c23)C(=O)N1CCN1CCNCC1`, for which the GI50 in the experiment on 786-0 renal was 1.84 µM; in the experiment on OVCAR-4 ovarian, 18.3 µM; in the experiment with OVCAR-8 ovarian, 10.9 µM; in the experiment on SNB-75 CNS it was 17.4 µM; in the experiment on RXF 393 renal, 16.8 µM; with OVCAR-5 ovarian it was 15.1 µM. In addition, the GI50 with CCRF-CEM leukemia was 3.09 µM; in the experiment with MALME-3M melanoma, 17.5 µM; in the experiment with SK-MEL-28 melanoma, 17.1 µM. Moreover, the TGI in the experiment on 786-0 renal amounted to 4.32 µM; with OVCAR-4 ovarian it was 42.3 µM; in the experiment on OVCAR-8 ovarian it was 41.5 µM; in the experiment with SNB-75 CNS, 33.8 µM; in the experiment on RXF 393 renal it was 33 µM; with OVCAR-5 ovarian, 34.1 µM. The TGI in the experiment on CCRF-CEM leukemia stood at 18.4 µM; in the experiment with MALME-3M melanoma, 40 µM; with SK-MEL-28 melanoma, 34.4 µM.
